Laboratory results published in patent US8829034B2, “Compounds which modulate the CB2 receptor” (Boehringer Ingerlheim International GmbH, priority 2006, dated 2014).
Like-named read-outs stand apart in the source and are kept apart here.

Molecular target: T1, human CB2R (Homo sapiens, UniProt P34972)
T1 construct: host or cells: CHO cells
Assay: CB2R mediated modulation of cAMP synthesis
Format: cell-based
Details: for agonistic activity: found through the use of the above described assays
Procedure, shortened: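 CHO cells expressing human CB2R were treated with compound for 30 min at 37 °C in buffer containing 1 mM IBMX, 0.25% BSA and 10 uM forskolin. cAMP was measured after lysis. EC50 was taken as 50% inhibition of forskolin-stimulated cAMP, with 100% defined by 1 uM CP55940, using a four-parameter logistic fit.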

T1 sequence (P34972 whole entry): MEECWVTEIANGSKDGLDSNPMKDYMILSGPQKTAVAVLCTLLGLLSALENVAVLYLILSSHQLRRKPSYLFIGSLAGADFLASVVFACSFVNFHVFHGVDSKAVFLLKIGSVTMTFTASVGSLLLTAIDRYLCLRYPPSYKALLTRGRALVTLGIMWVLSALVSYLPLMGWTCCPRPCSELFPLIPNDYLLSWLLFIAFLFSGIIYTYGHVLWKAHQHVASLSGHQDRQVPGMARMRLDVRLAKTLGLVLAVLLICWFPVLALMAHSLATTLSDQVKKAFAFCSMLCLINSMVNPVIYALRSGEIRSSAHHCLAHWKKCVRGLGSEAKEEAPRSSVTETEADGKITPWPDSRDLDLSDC

Structure (SMILES): CC(C)(C)c1csc(NC(=O)C(C)(C)S(=O)(=O)C(C)(C)C)n1 [N-(4-tert-Butyl-thiazol-2-yl)-2-methyl-2-(2-methyl-propane-2-sulfonyl)-propionamide]
- EC50: 61.1 nM
- agonistic activity: agonistic activity

Structure (SMILES): CCCS(=O)(=O)C(C)(C)C(=O)Nc1nc(C(C)(C)C)cs1 [N-(4-tert-Butyl-thiazol-2-yl)-2-methyl-2-(propane-1-sulfonyl)-propionamide]
- EC50: 19.2 nM
- agonistic activity: agonistic activity

Structure (SMILES): CC(C)S(=O)(=O)C(C)(C)C(=O)Nc1nc(C(C)(C)C)cs1 [N-(4-tert-Butyl-thiazol-2-yl)-2-methyl-2-(propane-2-sulfonyl)-propionamide]
- agonistic activity: agonistic activity

Structure (SMILES): CC(C)(C)c1csc(NC(=O)C(C)(C)S(=O)(=O)C2CCOCC2)n1 [N-(4-tert-Butyl-thiazol-2-yl)-2-methyl-2-(tetrahydro-pyran-4-sulfonyl)-propionamide]
- EC50 (CHO cells expressing human CB2R, inhibition of forskolin-stimulated cAMP synthesis, compounds having agonist activity, read-out: CB2 EC50): 12.4 nM
- agonistic activity: agonistic activity

Structure (SMILES): CC(C)(C)c1csc(NC(=O)C(C)(C)S(=O)(=O)CC2CCOCC2)n1 [N-(4-tert-Butyl-thiazol-2-yl)-2-methyl-2-(tetrahydro-pyran-4-ylmethanesulfonyl)-propionamide]
- agonistic activity: agonistic activity

Structure (SMILES): CC(C)C(C(=O)Nc1nc(C(C)(C)C)cs1)S(=O)(=O)C(C)C (stereo not shown) [N-(4-tert-Butyl-thiazol-2-yl)-3-methyl-2-(propane-2-sulfonyl)-butyramide]
- agonistic activity: agonistic activity

Structure (SMILES): CCCS(=O)(=O)C(C)(C)C(=O)Nc1nc(-c2ccccc2)c(CC)s1 [N-(5-Ethyl-4-phenyl-thiazol-2-yl)-2-methyl-2-(propane-1-sulfonyl)-propionamide]
- EC50: 10.8 nM
- agonistic activity: agonistic activity

Structure (SMILES): CCc1sc(NC(=O)C(C)(C)S(=O)(=O)CC2CCOCC2)nc1-c1ccccc1 [N-(5-Ethyl-4-phenyl-thiazol-2-yl)-2-methyl-2-(tetrahydro-pyran-4-ylmethanesulfonyl)-propionamide]
- EC50: 2 nM
- agonistic activity: agonistic activity

Structure (SMILES): CC(C)c1cc(NC(=O)C(C)(C)S(=O)(=O)CC2CCOCC2)n(C)n1 [N-(5-Isopropyl-2-methyl-2H-pyrazol-3-yl)-2-methyl-2-(tetrahydro-pyran-4-ylmethanesulfonyl)-propionamide]
- agonistic activity: agonistic activity

Structure (SMILES): CC(C)(C)c1nnc(NC(=O)C(C)(C)S(=O)(=O)C2CCCC2)s1 [N-(5-tert-Butyl-1,3,4-thiadiazol-2-yl)-2-cyclopentanesulfonyl-2-methyl-propionamide]
- EC50: 18.6 nM
- agonistic activity: agonistic activity

Structure (SMILES): Cn1nc(C(C)(C)C)cc1NC(=O)C(C)(C)S(=O)(=O)CC(C)(C)C [N-(5-tert-Butyl-2-methyl-2H-pyrazol-3-yl)-2-(2,2-dimethyl-propane-1-sulfonyl)-2-methyl-propionamide]
- agonistic activity: agonistic activity

Structure (SMILES): CCCC(CC)S(=O)(=O)C(C)(C)C(=O)Nc1cc(C(C)(C)C)nn1C (stereo not shown) [N-(5-tert-Butyl-2-methyl-2H-pyrazol-3-yl)-2-(hexane-3-sulfonyl)-2-methyl-propionamide]
- agonistic activity: agonistic activity

Structure (SMILES): Cn1nc(C(C)(C)C)cc1NC(=O)C(C)(C)S(=O)(=O)CC1CCC1 [N-(5-tert-Butyl-2-methyl-2H-pyrazol-3-yl)-2-cyclobutylmethanesulfonyl-2-methyl-propionamide]
- EC50: 33 nM
- agonistic activity: agonistic activity

Structure (SMILES): Cn1nc(C(C)(C)C)cc1NC(=O)C(C)(C)S(=O)(=O)C1CCCCCC1 [N-(5-tert-Butyl-2-methyl-2H-pyrazol-3-yl)-2-cycloheptanesulfonyl-2-methyl-propionamide]
- EC50: 6.5 nM
- agonistic activity: agonistic activity

Structure (SMILES): Cn1nc(C(C)(C)C)cc1NC(=O)C(C)(C)S(=O)(=O)CC1CCCCC1 [N-(5-tert-Butyl-2-methyl-2H-pyrazol-3-yl)-2-cyclohexylmethanesulfonyl-2-methyl-propionamide]
- EC50: 23.8 nM
- agonistic activity: agonistic activity

Structure (SMILES): Cn1nc(C(C)(C)C)cc1NC(=O)C(C)(C)S(=O)(=O)C1CCCC1 [N-(5-tert-Butyl-2-methyl-2H-pyrazol-3-yl)-2-cyclopentanesulfonyl-2-methyl-propionamide]
- agonistic activity: agonistic activity

Structure (SMILES): CCS(=O)(=O)C(C)(C)C(=O)Nc1cc(C(C)(C)C)nn1C [N-(5-tert-Butyl-2-methyl-2H-pyrazol-3-yl)-2-ethanesulfonyl-2-methyl-propionamide]
- agonistic activity: agonistic activity

Structure (SMILES): Cn1nc(C(C)(C)C)cc1NC(=O)C(C)(C)S(C)(=O)=O [N-(5-tert-Butyl-2-methyl-2H-pyrazol-3-yl)-2-methanesulfonyl-2-methyl-propionamide]
- agonistic activity: agonistic activity

Structure (SMILES): Cn1nc(C(C)(C)C)cc1NC(=O)C(C)(C)S(=O)(=O)C(C)(C)C [N-(5-tert-Butyl-2-methyl-2H-pyrazol-3-yl)-2-methyl-2-(2-methyl-propane-2-sulfonyl)-propionamide]
- agonistic activity: agonistic activity

Structure (SMILES): CC(C)CCS(=O)(=O)C(C)(C)C(=O)Nc1cc(C(C)(C)C)nn1C [N-(5-tert-Butyl-2-methyl-2H-pyrazol-3-yl)-2-methyl-2-(3-methyl-butane-1-sulfonyl)-propionamide]
- EC50: 15.4 nM
- agonistic activity: agonistic activity

Structure (SMILES): Cn1nc(C(C)(C)C)cc1NC(=O)C(C)(C)S(=O)(=O)C[C@H]1CCC(=O)N1 [N-(5-tert-Butyl-2-methyl-2H-pyrazol-3-yl)-2-methyl-2-((R)-5-oxo-pyrrolidin-2-ylmethanesulfonyl)-propionamide]
- agonistic activity: agonistic activity

Structure (SMILES): Cn1nc(C(C)(C)C)cc1NC(=O)C(C)(C)S(=O)(=O)C[C@@H]1CCC(=O)N1 [N-(5-tert-Butyl-2-methyl-2H-pyrazol-3-yl)-2-methyl-2-((S)-5-oxo-pyrrolidin-2-ylmethanesulfonyl)-propionamide]
- agonistic activity: agonistic activity

Structure (SMILES): CCCS(=O)(=O)C(C)(C)C(=O)Nc1cc(C(C)(C)C)nn1C [N-(5-tert-Butyl-2-methyl-2H-pyrazol-3-yl)-2-methyl-2-(propane-1-sulfonyl)-propionamide]
- agonistic activity: agonistic activity

Structure (SMILES): CC(C)S(=O)(=O)C(C)(C)C(=O)Nc1cc(C(C)(C)C)nn1C [N-(5-tert-Butyl-2-methyl-2H-pyrazol-3-yl)-2-methyl-2-(propane-2-sulfonyl)-propionamide]
- agonistic activity: agonistic activity

Structure (SMILES): Cn1nc(C(C)(C)C)cc1NC(=O)C(C)(C)S(=O)(=O)CC1CCCO1 (stereo not shown) [N-(5-tert-Butyl-2-methyl-2H-pyrazol-3-yl)-2-methyl-2-(tetrahydro-furan-2-ylmethanesulfonyl)-propionamide]
- agonistic activity: agonistic activity

Structure (SMILES): Cn1nc(C(C)(C)C)cc1NC(=O)C(C)(C)S(=O)(=O)CC1CCCCO1 (stereo not shown) [N-(5-tert-Butyl-2-methyl-2H-pyrazol-3-yl)-2-methyl-2-(tetrahydro-pyran-2-ylmethanesulfonyl)-propionamide]
- agonistic activity: agonistic activity

Structure (SMILES): Cn1nc(C(C)(C)C)cc1NC(=O)C(C)(C)S(=O)(=O)C1CCOCC1 [N-(5-tert-Butyl-2-methyl-2H-pyrazol-3-yl)-2-methyl-2-(tetrahydro-pyran-4-sulfonyl)-propionamide]
- agonistic activity: agonistic activity

Structure (SMILES): Cn1nc(C(C)(C)C)cc1NC(=O)C(C)(C)S(=O)(=O)CC1CCOCC1 [N-(5-tert-Butyl-2-methyl-2H-pyrazol-3-yl)-2-methyl-2-(tetrahydro-pyran-4-ylmethanesulfonyl)-propionamide]
- agonistic activity: agonistic activity

Structure (SMILES): Cc1nc(NC(=O)C(C)(C)S(=O)(=O)Cc2ccc(Cl)cc2)sc1C(C)(C)C [N-(5-tert-Butyl-4-methyl-thiazol-2-yl)-2-(4-chloro-phenylmethanesulfonyl)-2-methyl-propionamide]
- EC50: 12.1 nM
- agonistic activity: agonistic activity

Structure (SMILES): Cc1nc(NC(=O)C(C)(C)S(=O)(=O)C(C)(C)C)sc1C(C)(C)C [N-(5-tert-Butyl-4-methyl-thiazol-2-yl)-2-methyl-2-(2-methyl-propane-2-sulfonyl)-propionamide]
- EC50: 10.7 nM
- agonistic activity: agonistic activity

Structure (SMILES): CCCS(=O)(=O)C(C)(C)C(=O)Nc1nc(C)c(C(C)(C)C)s1 [N-(5-tert-Butyl-4-methyl-thiazol-2-yl)-2-methyl-2-(propane-1-sulfonyl)-propionamide]
- EC50: 7.2 nM
- agonistic activity: agonistic activity

Structure (SMILES): Cc1nc(NC(=O)C(C)(C)S(=O)(=O)C(C)C)sc1C(C)(C)C [N-(5-tert-Butyl-4-methyl-thiazol-2-yl)-2-methyl-2-(propane-2-sulfonyl)-propionamide]
- EC50: 25.8 nM
- agonistic activity: agonistic activity

Structure (SMILES): Cc1nc(NC(=O)C(C)(C)S(=O)(=O)C2CCOCC2)sc1C(C)(C)C [N-(5-tert-Butyl-4-methyl-thiazol-2-yl)-2-methyl-2-(tetrahydro-pyran-4-sulfonyl)-propionamide]
- EC50: 0.3 nM
- agonistic activity: agonistic activity

Structure (SMILES): Cc1nc(NC(=O)C(C)(C)S(=O)(=O)CC2CCOCC2)sc1C(C)(C)C [N-(5-tert-Butyl-4-methyl-thiazol-2-yl)-2-methyl-2-(tetrahydro-pyran-4-ylmethanesulfonyl)-propionamide]
- EC50: 0.2 nM
- agonistic activity: agonistic activity

Structure (SMILES): Cc1nc(NC(=O)C(C(C)C)S(=O)(=O)C(C)C)sc1C(C)(C)C (stereo not shown) [N-(5-tert-Butyl-4-methyl-thiazol-2-yl)-3-methyl-2-(propane-2-sulfonyl)-butyramide]
- agonistic activity: agonistic activity

Structure (SMILES): CC(C)(C)c1nnc(NC(=O)C(C)(C)S(=O)(=O)CC2CCOCC2)s1 [N-(5-tert-Butyl-[1,3,4]thiadiazol-2-yl)-2-methyl-2-(tetrahydro-pyran-4-ylmethanesulfonyl)-propionamide]
- agonistic activity: agonistic activity
